Measured values as given in patent US20260070921A1, “COMPOUND, ENDOPLASMIC RETICULUM STRESS INHIBITOR, PHARMACEUTICAL PRODUCT, OPHTHALMIC AGENT, EYE DROPS, COMPOSITION, AND METHOD FOR PRODUCING COMPOUND” (KYOTO UNIVERSITY, priority 2022, published 2026).

Experiments:
HEK293 cells = experiment: Fluorescence imaging of self-assemblies in living cells (DCVJ); type: cell-based; details: DCVJ 1.0 μM
Experimental: HEK293 cells were incubated with compound 1, 4, 5, or 6 (25 or 100 μM) in the presence of 1.0 μM DCVJ in DMEM (10% FBS). Fluorescence and bright-field images were taken with a CV1000 confocal microscope equipped with a 40× objective lens (Yokogawa Electric Corporation).
The ability of compound 1 and its derivatives, compounds 4 to 6, to form assemblies was also monitored in living cells. […] HEK293 cells were treated with compound 1, 4, 5, or 6 (25 μM or 100 μM) and 1.0 μM of DCVJ for 8 hours. Fluorescence and bright-field images were taken with a CV1000 confocal microscope. HEK293 cells were treated with compound 1, 4, 5, or 6 (25 or 100 μM) and DCVJ (1.0 μM) for 8 hours and observed with a confocal microscope. […] The self-assembling ability of the molecules of compound 6 may be due to its cellular activity at that concentration, even at 25 μM. […] To further support the importance of self-organization formation in cellular activity, dose-response curves for compounds 1 and 6 were determined. The biological activity of the compounds' molecular assembly is expected to be more cooperative than that of the monomer and to show a steeper dose-response curve (Reference Material 18 below). […] Compound 6 is referred to as “selfonamide” below. […] P. A High-Throughput Screen for Aggregation-Based Inhibition in a Large Compound Library. J Med Chem 2007, 50 (10), 2385-2390. https://doi.org/10.1021/jm061317y.

luciferase = experiment: Luciferase-based refolding assay in live cells; type: cell-based; details: compound 1 100 μM, compound 6 25 μM, 20 h
Experimental: HEK293 cells were seeded in 96-well plates (2×10^4 cells/well) and transfected with a luciferase expression plasmid (0.1 μg/well) using FuGENE HD (Promega). […] Refolding assay was performed as described in Walther, T. V.; Maddalo, D. Intracellular Refolding Assay. J Vis Exp 2012, No. 59. https://doi.org/10.3791/3540. Briefly speaking, luciferase was denatured in live cells by incubation at 45° C. for 30 minutes in the presence of 200 mM MOPS and 20 μg/mL cycloheximide. After the denaturation step, the cells were incubated at 37° C. for various times to allow the luciferase to refold. After cells were lysed with Reporter Lysis 5× Buffer (Promega), luciferase activity was measured.

[1] = system: mouse embryonic fibroblasts (MEFs); experiment: Tunicamycin assay using autophagy-deficient cells; type: cell-based; details: for Rescue from ER stress-induced cell death: wild-type MEFs, compound 1 100 μM, compound 6 25 μM, 18 h, tunicamycin 5.0 μg/mL 48 h
Experimental: Cellular protein aggregates are often cleared by cellular mechanisms, such as autophagy and ubiquitin-proteasome system. To examine the importance of these proteolytic pathways in the activity of compounds 1 and 6, their ability to inhibit tunicamycin-induced cytotoxicity in the presence of an autophagy or proteasome inhibitor (bafilomycin A1 or MG132, respectively) was measured. FIG. 9 is a graph showing the results of a tunicamycin assay using an autophagy or proteasome inhibitor. Cells were pre-incubated with compound 1 or compound 6 for 16 hours and then treated with tunicamycin (5.0 μg/mL) in the presence or absence of a specified substance for 48 hours. FIG. 9(A) is a graph showing measurements in the presence or absence of bafilomycin A1 (Baf A1, autophagy inhibitor). FIG. 9(B) is a graph showing measurements in the presence or absence of MG132 (proteasome inhibitor). Error bars represent s.d. (n=3). Statistical analysis was performed according to the one-way ANOVA and Dunnett's test. *P<0.05; n.s.: not significant. […] The concentrations used of the inhibitors were confirmed to be non-toxic to cells (FIGS. 31 and 32). To further study the role of autophagy, autophagy-deficient atg7^−/− and p62^−/− mouse embryonic fibroblasts (MEFs) were subjected to a tunicamycin assay. FIG. 10 is a graph showing the results of the tunicamycin assay using the autophagy-deficient cells. Wild-type (wt), atg7^−/−, or p62^−/− mouse embryonic fibroblasts (MEFs) were treated with molecule 1 (100 μM) or molecule 6 (25 μM) for 18 hours and then incubated with tunicamycin (5.0 μg/mL) for 48 hours. Error bars represent s.d. (n=3). Statistical analysis was performed according to the one-way ANOVA and Dunnett's test. *P<0.05, **P<0.01. ATG7 is an E1-like enzyme important for phagophore expansion, and p62 is an autophagy receptor for ubiquitinated substrates (Reference Material 20 below). Wild-type (wt), atg7^−/−, or p62^−/− MEF cells were treated with compound 1 or compound 6 for 18 hours, followed by treatment with tunicamycin (5.0 μg/mL) for 48 hours. […] Nat Rev Mol Cell Bio 2018, 19 (6), 349-364. https://doi.org/10.1038/s41580-018-0003-4.

iFECD = experiment: TGF-β2-induced cell damage in iFECD (phase-contrast microscopy); type: cell-based, human; details: pretreatment 24 h, TGF-β2 10 ng/ml; compound 1 1-100 μM, compound 6 10 nM-1 μM
Experimental: The medium was removed from the culture dish, in which iFECD was being cultured, and 1×PBS(−) that had been pre-warmed to 37° C. was added to wash the cells. This procedure was performed twice. Again, 1×PBS(−) was added, and the cells were incubated at 37° C. (5% CO2) for 3 minutes. After the PBS(−) was removed, 0.05% Trypsin-EDTA (Nacalai Tesque, 32778-34) was added, and the cells were incubated at 37° C. ([…]) for 5 minutes. Thereafter, the cells were suspended in a medium and centrifuged at 1500 rpm for 3 minutes to recover the cells. The medium used was DMEM (Nacalai Tesque, 08456-36)+10% FBS (Biowest, S1820-500)+1% P/S (Nacalai Tesque, 26252-94).
iFECD cells were seeded in a 12-well plate at a density of 0.5×10^5 cells per well and cultured at 37° C.
The same method as described in the Materials and Methods section in Example 11-1 was used, except that compound 6 was used instead of compound 1, and the amount of iFECD seeded in a 12-well plate was changed from 0.5×10^5 cells per well to 0.9×10^5 cells per well.

fibronectin = experiment: Western blotting of TGF-β2-induced fibronectin production in iFECD; type: cell-based, human; details: TGF-β2 stimulated iFECD
Experimental: 5 μg of the extracted proteins were separated by SDS-PAGE and transferred to a nitrocellulose membrane. The primary antibodies used were mouse anti-fibronectin antibody (BD Bioscience, 610077) and mouse anti-GAPDH antibody (MBL, M171-3). The secondary antibodies used were peroxidase-labeled anti-rabbit antibody and anti-mouse antibody (GE Healthcare Biosciences, NA931V, NA934V). The primary antibodies were diluted as follows: mouse anti-fibronectin antibody, 15,000-fold; and mouse anti-GAPDH antibody, 5,000-fold. The secondary antibodies were diluted 5,000-fold. For detection, Chemi Lumi ONE Ultra (Nacalai Tesque, 11644-40) was used. The intensity of the detected bands was analyzed using a LAS-4000mini lumino image analyzer (Fujifilm) and ImageQuant™ software (GE Healthcare).

Structure (SMILES)	Assemblies within cells (HEK293 cells; 25 μM, 8 h)	Refolding of luciferase (luciferase)	Ability to rescue from ER stress-induced cell death ([1]; atg7−/− MEFs)	Ability to rescue from ER stress-induced cell death ([1]; p62−/− MEFs)	Rescue from ER stress-induced cell death [1]	Cell damage induced by recombinant human TGF-β2 (iFECD)	Fibronectin production (fibronectin)	Fluorescent particles within cells (HEK293 cells; 100 μM, after 8 hours)
COc1ccc2c(c1)sc1c(=O)nc3nc(Nc4ccc(S(N)(=O)=O)cc4)ccn3c12 [compound 6]	showed detectable assemblies within cells	slightly inhibited refolding	severely impaired	severely impaired	rescued	limited damage to corneal endothelial cells	almost no production of fibronectin was observed	–
NS(=O)(=O)c1ccc(Nc2ccn3c(n2)nc(=O)c2sc4cc(F)ccc4c23)cc1 [compound 1]	–	slightly inhibited refolding	severely impaired	severely impaired	rescued	limited damage to corneal endothelial cells	almost no production of fibronectin was observed	fluorescent particles were observed within the cells
